The values that follow come from ChEMBL document CHEMBL1201862, “PubChem BioAssay data set” (2004).

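Protocol summary: plate cells (96-well), add compound at 5 concentrations, incubate 48 h, interpolate endpoints linearly. GI50 is the concentration that inhibits growth by half.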 Active and inactive are the calls of the source. No stated cut-off is given here; in the data, active = GI50 up to about 1.1 µM and inactive = higher. Residues, ends and D or L forms follow the SMILES beside them. *: point of attachment. Fmoc = O=C(OCC1c2ccccc2-c2ccccc21)*; Boc = CC(C)(C)OC(=O)* Bounds are passed on as bounds.

Some test systems named below: OVCAR-3; ACHN; UACC-257; IGROV-1; T47D; HT-29; MOLT-4; SK-MEL-2; KM12; Malme-3M; OVCAR-4; PC-3; HCT-116; HCT-15; SF-268; 786-0; NCI-H226; SK-MEL-5; A498; NCI-H522.
What all share (assay): NCI-60 cell line screen, 48 h

Turning to `O=[N+]([O-])c1ccc2c(c1)=[N+]([O-])C1(CCCCC1)[N+]=2[O-]`, the GI50 with OVCAR-3 is 15.6 µM (inactive); in the assay on ACHN, 19.6 µM (inactive); in the assay with UACC-257, 15.1 µM (inactive); in the assay with IGROV-1 it was 20.4 µM (inactive); in the assay on T47D, 25.5 µM (inactive); with HT-29, 19.5 µM (inactive). The GI50 in the assay with MOLT-4 is 6.15 µM (inactive); with SK-MEL-2, 22.1 µM (inactive); in the assay with KM12, 20.5 µM (inactive); with Malme-3M, 15.2 µM (inactive); in the assay with OVCAR-4, 11.6 µM (inactive); in the assay with PC-3 it was 17.5 µM (inactive). In addition, the GI50 was 17.1 µM (inactive) in the assay with HCT-116; 18.2 µM in the assay on HCT-15; 26.9 µM (inactive) in the assay with SF-268; 11.5 µM (inactive) with 786-0; 21.1 µM (inactive) in the assay on NCI-H226; 15 µM (inactive) in the assay on SK-MEL-5.

As for `c1ccc(-c2c(-c3cccs3)[nH]c(-c3cccs3)c2-c2ccccn2)nc1`, the GI50 with OVCAR-3 is 24 µM (inactive); with ACHN it was 30.5 µM (inactive); in the assay on UACC-257 it was 22 µM (inactive); in the assay with IGROV-1 it was 22.5 µM (inactive); with T47D, 18.2 µM (inactive); in the assay on HT-29 it was 14.2 µM (inactive). In addition, the GI50 in the assay on MOLT-4 was 11.7 µM (inactive); with KM12, 23.1 µM (inactive); in the assay on A498 it was 27.5 µM (inactive); in the assay on Malme-3M it was 25.5 µM (inactive); in the assay on PC-3, 10.6 µM (inactive); in the assay with HCT-116, 0.127 µM (active). Besides, the GI50 in the assay with HCT-15 was 15.1 µM; with SF-268 it was 19.7 µM (inactive); in the assay on 786-0 it was 22.6 µM (inactive); in the assay on NCI-H226, 23 µM (inactive); in the assay with SK-MEL-5 it was 13.7 µM (inactive).

With `Cc1cccc2nc(-c3ccccc3)cc(=O)n12`, the GI50 was > 100 µM (inactive) in the assay with OVCAR-3; 43.1 µM (inactive) in the assay on ACHN; 58.9 µM (inactive) with NCI-H522; 91.8 µM (inactive) in the assay on UACC-257; 49.8 µM (inactive) in the assay on IGROV-1; 14 µM (inactive) with T47D. Further, the GI50 is > 100 µM (inactive) with HT-29; 63.5 µM (inactive) in the assay with MOLT-4; > 100 µM (inactive) in the assay on KM12; > 100 µM (inactive) in the assay on Malme-3M; > 100 µM (inactive) in the assay with OVCAR-4; 43.7 µM (inactive) with PC-3. Also, the GI50 in the assay on HCT-116 is > 100 µM (inactive); in the assay with HCT-15 it was 94 µM; in the assay on SF-268, > 100 µM (inactive); in the assay on 786-0 it was > 100 µM (inactive); with NCI-H226 it was 30.1 µM (inactive); in the assay with SK-MEL-5, 38.2 µM (inactive).

Consider `O=C(NNC(=S)Nc1ccc(Cl)cc1)c1cc(-c2ccccc2)nc2ccccc12`, for which the GI50 was 2.66 µM (inactive) in the assay with OVCAR-3; 10 µM (inactive) in the assay with ACHN; 5.64 µM (inactive) with NCI-H522; 5.55 µM (inactive) with UACC-257; 5.96 µM (inactive) with IGROV-1; 2.33 µM (inactive) in the assay with T47D. Besides, the GI50 with HT-29 was 8.73 µM (inactive); with MOLT-4, 4.24 µM (inactive); with SK-MEL-2 it was 2.56 µM (inactive); in the assay on KM12, 4.49 µM (inactive); in the assay with Malme-3M, 4.6 µM (inactive); with OVCAR-4 it was 10.5 µM (inactive). Also, the GI50 was 3.42 µM (inactive) in the assay with PC-3; 3.06 µM (inactive) in the assay on HCT-116; 3.43 µM in the assay with HCT-15; 11.7 µM (inactive) in the assay with SF-268; 4.71 µM (inactive) in the assay with 786-0; 11.5 µM (inactive) in the assay with NCI-H226. In addition, in the assay with SK-MEL-5, the GI50 is 3.73 µM (inactive).

Consider `CC(=O)Oc1cc2c[n+](C)c3c4cc(OC(C)=O)c(OC(C)=O)cc4ccc3c2cc1OC(C)=O`, for which the GI50 was 2.24 µM (inactive) in the assay with OVCAR-3; 4.68 µM (inactive) in the assay on ACHN; 0.647 µM (active) in the assay with NCI-H522; 14.5 µM (inactive) with UACC-257; 2.49 µM (inactive) in the assay on IGROV-1; 1.87 µM (inactive) in the assay on T47D. For the same molecule, the GI50 in the assay on HT-29 is 2.72 µM (inactive); with KM12 it was 5.46 µM (inactive); in the assay on A498 it was 7.5 µM (inactive); in the assay with Malme-3M, 2.39 µM (inactive); in the assay on PC-3 it was 4.07 µM (inactive); in the assay with HCT-116, 2.3 µM (inactive). The GI50 with HCT-15 was 2.69 µM; in the assay on SF-268 it was 0.407 µM (active); with 786-0, 1.59 µM (inactive); in the assay on NCI-H226, 1.54 µM (inactive); with SK-MEL-5, 3.17 µM (inactive).

With `CCOC1c2cc(OC)c(OC)cc2-c2ccc3ccccc3c2N1C` (stereo not drawn), the GI50 with OVCAR-3 is 11.5 µM (inactive); in the assay with ACHN it was 30.3 µM (inactive); in the assay on NCI-H522, 3.02 µM (inactive); in the assay with UACC-257, 16.6 µM (inactive); in the assay with IGROV-1, 19.2 µM (inactive); in the assay with T47D, 4.84 µM (inactive). Also, the GI50 is 10.9 µM (inactive) with HT-29; 4.43 µM (inactive) in the assay on MOLT-4; 13.9 µM (inactive) in the assay with SK-MEL-2; 2.66 µM (inactive) with KM12; 9.16 µM (inactive) in the assay on Malme-3M; 19 µM (inactive) in the assay on OVCAR-4. Moreover, the GI50 was 5.15 µM (inactive) in the assay with PC-3; 8.59 µM (inactive) with HCT-116; 60.1 µM with HCT-15; 2.05 µM (inactive) in the assay on SF-268; 16.8 µM (inactive) in the assay with 786-0; 19.2 µM (inactive) in the assay with NCI-H226. The GI50 with SK-MEL-5 is 16.4 µM (inactive).

As to `Cc1ccc(/C=N/Nc2ncccn2)s1`, the GI50 with OVCAR-3, with ACHN, with NCI-H522, with UACC-257, in the assay on IGROV-1 and with T47D was > 100 µM (inactive) each time. Further, the GI50 in the assay with HT-29, in the assay with SK-MEL-2, in the assay with KM12, in the assay with Malme-3M, with OVCAR-4 and with PC-3 was > 100 µM (inactive) throughout. The GI50 in the assay with HCT-116 was > 100 µM (inactive); in the assay with HCT-15, over 100 µM; in the assay on SF-268, > 100 µM (inactive); in the assay on 786-0 it was > 100 µM (inactive); in the assay on NCI-H226 it was > 100 µM (inactive); with SK-MEL-5, > 100 µM (inactive).

Turning to `C=C1CC(C)(COc2ccc3c(C)c(Cl)c(=O)oc3c2)OC1=O` (stereo not drawn), the GI50 in the assay on OVCAR-3 was 2.89 µM (inactive); in the assay with ACHN, 2.82 µM (inactive); with NCI-H522 it was 0.632 µM (active); in the assay with UACC-257, 1.15 µM (inactive); in the assay with IGROV-1 it was 1.76 µM (inactive); in the assay with T47D, 0.361 µM (active). Further, the GI50 is 0.984 µM (active) in the assay with HT-29; 1.05 µM (active) in the assay with MOLT-4; 1.44 µM (inactive) with SK-MEL-2; 3.65 µM (inactive) with KM12; 1.9 µM (inactive) in the assay on Malme-3M; 2.31 µM (inactive) with OVCAR-4. Further, the GI50 in the assay with PC-3 was 2.52 µM (inactive); in the assay with HCT-116, 0.408 µM (active); with HCT-15, 2.03 µM; in the assay with SF-268, 3.52 µM (inactive); with 786-0, 1.35 µM (inactive); in the assay with NCI-H226 it was 2.83 µM (inactive). The GI50 in the assay on SK-MEL-5 is 1.43 µM (inactive).

In the case of `c1ccc2cc3c(cc2c1)nc1ccccn13`, the GI50 in the assay on OVCAR-3, with ACHN, in the assay on UACC-257, in the assay on IGROV-1, in the assay with T47D and with MOLT-4 was > 100 µM (inactive) each time. For the same molecule, the GI50 is > 100 µM (inactive) in the assay on KM12; > 100 µM (inactive) in the assay on Malme-3M; > 100 µM (inactive) in the assay with PC-3; 96.2 µM (inactive) in the assay on HCT-116; over 100 µM with HCT-15; > 100 µM (inactive) with SF-268. In addition, the GI50 with 786-0, in the assay on NCI-H226 and in the assay on SK-MEL-5 was > 100 µM (inactive) in each case.

Take `CCCCc1ccc(Nc2nc3ncnc-3c[nH]2)cc1`: the GI50 in the assay on OVCAR-3 was 14.2 µM (inactive); in the assay on ACHN it was 15.2 µM (inactive); in the assay with NCI-H522 it was 21.6 µM (inactive); with UACC-257 it was 21.2 µM (inactive); in the assay on IGROV-1, 17.3 µM (inactive); with T47D, 19.1 µM (inactive). For the same molecule, the GI50 in the assay on HT-29 is 21 µM (inactive); in the assay on MOLT-4 it was 14.3 µM (inactive); in the assay on SK-MEL-2, 20.2 µM (inactive); with KM12, 19.4 µM (inactive); with A498, 26.1 µM (inactive); with Malme-3M, 19.6 µM (inactive). The GI50 in the assay with OVCAR-4 was 25.3 µM (inactive); in the assay on HCT-116, 20.2 µM (inactive); in the assay with HCT-15 it was 17.5 µM; in the assay on SF-268, 16.3 µM (inactive); in the assay on 786-0, 25.6 µM (inactive); in the assay with NCI-H226, 15.9 µM (inactive). Also, in the assay on SK-MEL-5, the GI50 is 16.6 µM (inactive).

Turning to `CC(C)(C)OC(=O)NCCCCC(NC(=O)C(Cc1c[nH]c2ccccc12)NC(=O)OCC1c2ccccc2-c2ccccc21)C(=O)N1CCCC1C(=O)NCC(N)=O` (stereo not drawn) (Fmoc-WK(Boc)PG-NH2; configuration not given here), the GI50 in the assay with OVCAR-3, with ACHN, with NCI-H522, in the assay on UACC-257, in the assay on IGROV-1 and in the assay with T47D was > 100 µM (inactive) in each case. The GI50 with HT-29, in the assay with MOLT-4, with SK-MEL-2, in the assay on KM12, in the assay on Malme-3M and in the assay with OVCAR-4 was > 100 µM (inactive) throughout. The GI50 with PC-3 was > 100 µM (inactive); in the assay on HCT-116, > 100 µM (inactive); in the assay on HCT-15, over 100 µM; in the assay on SF-268, > 100 µM (inactive); in the assay on 786-0, > 100 µM (inactive); in the assay on NCI-H226, > 100 µM (inactive). The GI50 with SK-MEL-5 was > 100 µM (inactive).
